Consider four compounds from US4749568A, “Rubradirin treatment of methicillin-resistant staph” (The Upjohn Company, priority 1987, dated 1988).

The term ED50 denotes the dose at which the effect has come halfway, by size or by number of responders. Read a low ED50 as an effect at a small dose.

One assay relates to S. aureus UC9213. As to the kind of experiment: ED50 determination, mice infected intraperitoneally with S. aureus UC9213. Format: in vivo, Staphylococcus aureus (infected mice, Charles Fisher #1). Conditions: dosed 1 and 5 hr post infection, 10080 min. How it is done:
(§1) Effective Dose50 (ED50) determinations were performed using standard methods. All mice (Charles Fisher #1, 20 g) were given sufficient S. aureus intraperitoneally (IP) to kill 90 to 100% of untreated mice. At least five dosage levels of antibiotics were employed per each ED50 determination. The antibiotic was administered subcutaneous (SQ) or orally at 1 and 5 hr post infection. The mice were monitored for one week with deaths being noted daily. The ED50 values were calculated by probit analysis.
(§2) ^1 The dose of drug in mg/kg of body weight required to protect 50% o
(§3) the infected animals. Drug was dosed one and five hours post infection
(§4) ^2 Paldimycin was dosed SQ.

Assay [1] deals with two clinical strains of S. aureus. Conditions: cited from earlier work.
Assay [2] concerns Staphylococcus aureus. In words: Susceptibility test of patient isolate. Conditions: isolate from patient, Examples 1 to 3. Format: cell-based. How it is done:
It is known to those skilled in the art how to determine which Staphylococcus (aureus or epidermidis) infections are rubradirin-sensitiveand methicillin-resistant by use of standarad susceptibility tests. See, "Dilution Susceptibility Test: agar and macro-broth dilution procedures; Manual of Clinical Microbiology, Third Edition, American Society of Microbiology, 1980, Washington, D.C., p 453-458".
(§5) A 70 kg person has a fever of 103° F. and has symptoms of bacterial pneumonia infection. Standard laboratory tests isolate an organism which is identified as Staphylococcus aureus. […] The patient is given 1000 mg of rubradirin three times daily by mouth. The temperature over a short period goes to 98.6° F. and the clinical symptoms of pneumonia disappear.
(§6) A 60 kg patient has an infection on their arm following a severe burn. They have a 101° F. fever. Standard laboratory tests isolate an organism which is identified as Staphylococcus aureus. […] The patient is treated with a cream containing 3% rubradirin.
A 85 kg person has baceterial endocarditis with a fever of 104° F. Standard laboratory tests isolate an organism which is identified as Staphylococcus aureus. […] The patient is treated with an IV infusion of rubradirin (4.5 mg/ml) at a rate of 60 ml/hr for a dose of 76 mg/kg/day.

The test system of assay [3] is Staphylococcus aureus. As to the kind of experiment: Treatment of patient with bacterial pneumonia (Example 1). It counts as in vivo, Staphylococcus aureus (human patient). Conditions: 70 kg male, 1000 mg three times daily by mouth. How it is done: as §5
The next assay deals with S. aureus UC9271. As to the kind of experiment: ED50 determination, mice infected intraperitoneally with S. aureus UC9271. It counts as in vivo, Staphylococcus aureus (infected mice, Charles Fisher #1). Conditions: dosed 1 and 5 hr post infection, 10080 min. How it is done:
as §1, §2, §3, §4

Another assay deals with S. aureus UC6685. In words: ED50 determination, mice infected intraperitoneally with S. aureus UC6685. It counts as in vivo, Staphylococcus aureus (infected mice, Charles Fisher #1). Conditions: dosed 1 and 5 hr post infection, 10080 min. How it is done: as §1, §2, §3, §4
Assay [4] has as its system Staphylococcus aureus. In words: Topical treatment of patient with infected burn (Example 2). Conditions: 60 kg female, cream containing 3% rubradirin. It counts as in vivo, Staphylococcus aureus (human patient). How it is done:
as §6

The subject of assay [5] is Multidrug-resistant staphylococci. Conditions: Orthopedic Clinics of North America 15, 417 (1984); cited from earlier work.

As to `COc1ccc2c(O)c(NC(=O)c3cc(O[C@@H]4C[C@](C)([N+](=O)[O-])[C@@H](OC)[C@@H](C)O4)c(O)c(C(=O)O[C@H]4[C@H](O)C(=O)[C@]5(C)CNC6=C(O5)C(=O)c5c(cc(C)c(O)c5C(=O)/C(C)=C\[C@@H]4C)C6=O)n3)c(=O)oc2c1` [Rubradirin, rubradirin], the ED50 in the assay on S. aureus UC9213 (SQ) is listed as 4.7 mg/kg; in the assay on S. aureus UC9213 (oral), 1.6 mg/kg; with S. aureus UC9271 (SQ), 23.1 mg/kg; with S. aureus UC9271 (oral), 141 mg/kg; with S. aureus UC6685 (SQ), 4.7 mg/kg; in the assay on S. aureus UC6685 (oral) it was 11.1 mg/kg. Further, the in vitro activity result in assay [1] (two clinical strains resistant to several antibiotics) is on record as “had in vitro activity”. Further, the “Susceptibility test results of the isolate” value in the assay with Staphylococcus aureus [2] is “susceptible”. Besides, the “clinical symptoms of pneumonia” value with Staphylococcus aureus [3] is “disappear”. For the same compound, the temperature is 98.6 ° F in the assay with Staphylococcus aureus [3] (fever of 103° F. before) and “goes to normal” in the assay with Staphylococcus aureus [4] (after 3 days, 101° F. fever before). Further, the inflammation result in the assay with Staphylococcus aureus [4] is given as “less inflammation”. Besides, the “wound infection and healing” value in the assay on Staphylococcus aureus [4] was “the wound is not infected and appears to be healing much better”.

`COc1cccc(OC)c1C(=O)N[C@@H]1C(=O)N2[C@@H]1SC(C)(C)[C@@H]2C(=O)O` [methicillin]: the “methicillin sensitivity of the strains” value in assay [1] (strains originally tested by Bhuyan et al, later study) is recorded as “sensitive”. Moreover, in the assay on Staphylococcus aureus [2], the “Susceptibility test results of the isolate” value was “resistant”.

Regarding `CN[C@H](CC(C)C)C(=O)N[C@H]1C(=O)N[C@@H](CC(N)=O)C(=O)N[C@H]2C(=O)N[C@H]3C(=O)N[C@H](C(=O)N[C@H](C(=O)O)c4cc(O)cc(O)c4-c4cc3ccc4O)[C@H](O)c3ccc(c(Cl)c3)Oc3cc2cc(c3O[C@@H]2O[C@H](CO)[C@@H](O)[C@H](O)[C@H]2O[C@H]2C[C@](C)(N)[C@H](O)[C@H](C)O2)Oc2ccc(cc2Cl)[C@H]1O` [vancomycin], the susceptibility result in assay [5] was “retained their susceptibility”.

As for Paldimycin, the ED50 with S. aureus UC9213 (SQ) stood at 12.7 mg/kg; with S. aureus UC9271 (SQ), 20.5 mg/kg; in the assay with S. aureus UC6685 (SQ), 8.1 mg/kg.
